Data: ChEMBL document CHEMBL1153219, “Evaluation of human neutrophil elastase inhibitory effect of iridoid glycosides from Hedyotis diffusa” (Bioorg Med Chem Lett, 2010)

Biological target: T1, Neutrophil elastase (Homo sapiens, UniProt P08246)
T1 sequence (P08246 whole entry): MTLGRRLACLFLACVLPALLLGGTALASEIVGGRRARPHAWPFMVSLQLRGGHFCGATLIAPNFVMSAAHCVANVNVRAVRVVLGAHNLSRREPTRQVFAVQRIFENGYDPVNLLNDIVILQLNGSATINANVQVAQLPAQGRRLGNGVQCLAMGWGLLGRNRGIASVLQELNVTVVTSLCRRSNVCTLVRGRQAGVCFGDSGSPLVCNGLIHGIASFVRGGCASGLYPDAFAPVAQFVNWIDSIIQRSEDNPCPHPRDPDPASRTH
Assay: Inhibition of human neutrophil elastase

**Q.** Which IC50 does the source give for `O=C(O[C@@H]1Cc2c(O)cc(O)cc2O[C@@H]1c1cc(O)c(O)c(O)c1)c1cc(O)c(O)c(O)c1` [EPIGALOCATECHIN GALLATE] here?
**A.** 12.8 µM
